Molecules are shown by their SMILES. Read-outs that look alike come from different tables or passages of the source.

What all share (format): biochemical, human
Assay [1] has as its system ALK (h).
Protocol: (§1) Assay conditions included 10 μM ATP and 100 nM test compounds.
(§2) All reactions are initiated by the addition of the MgATP mix. After incubation for 40 minutes at room temperature, the reaction is stopped by the addition of 3% phosphoric acid solution. 10 μL of the reaction is then spotted onto a P30 filtermat and washed three times for 5 minutes in 75 mM phosphoric acid and once in methanol prior to drying and scintillation counting. This assay is performed by Millipore. The experiment is carried out in duplicate. The value for the control sample (DMSO) was set to 100%, and the values for the compound-treated samples were expressed as activity relative to the control sample.
The subject of assay [2] is EGFR (T790M) (h).
Protocol: as §1, §2
In assay [3] the test system is EGFR (T790M, L858R) (h).
Protocol: as §1
(§3) All reactions are initiated by the addition of the MgATP mix. After incubation for 40 minutes at room temperature, the reaction is stopped by the addition of 3% phosphoric acid solution. 10 μL of the reaction is then spotted onto a P30 filtermat and washed three times for 5 minutes in 75 mM phosphoric acid and once in methanol prior to drying and scintillation counting. […] The experiment is carried out in duplicate. The value for the control sample (DMSO) was set to 100%, and the values for the compound-treated samples were expressed as activity relative to the control sample.
(§4) (specific activity approx. 500 cpm/pmol, concentration as required) and 0.1 μM test compound.
For assay [4], the system named is EGFR (h).
Protocol: as §1, §3, §4
Assay [5] relates to EGFR (L858R) (h).
Protocol: as §1, §3, §4
The mark [6] stands for this setting: 0.1 μM test compound, 10 μM ATP, remaining activity relative to DMSO control = 100%.

For `C=CC(=O)Nc1cc(Nc2ncc(Cl)c(Nc3ccccc3C(=O)C(=O)N(C)C)n2)ccc1OCCN(C)C` [Example 115, N-(5-(5-chloro-4-(2-(2-(dimethylamino)-2-oxoacetyl)phenylamino)pyrimidin-2-ylamino)-2-(2-(dimethylamino)ethoxy)phenyl)acrylamide], in assay [1] (setting [6]), the “Activity (control) % ALK (h)” value was 6%.
As to `C=CC(=O)Nc1cc(Nc2ncc(Cl)c(Nc3ccccc3C(=O)C(=O)N(CC)CC)n2)ccc1OC` [Example 132, N-(5-(5-chloro-4-(2-(2-(diethylamino)-2-oxoacetyl)phenylamino)pyrimidin-2-ylamino)-2-methoxyphenyl)acrylamide], in assay [2] (setting [6]), the “Activity (control) % EGFR (T790M) (h)” value was found to be 77%. Moreover, in assay [3] (setting [6]), the “Activity (control) % EGFR (T790M, L858R) (h)” value is 30%. Moreover, in assay [1] (setting [6]), the “Activity (control) % ALK (h)” value was determined as 16%.
As to `COc1cc(Nc2ncc(Cl)c(Nc3ccccc3C(=O)C(=O)N(C)C)n2)ccc1N1CCN(C(C)=O)CC1` [Example 94, 2-(2-(2-(4-(4-acetylpiperazin-1-yl)-3-methoxyphenylamino)-5-chloropyrimidin-4-ylamino)phenyl)-N,N-dimethyl-2-oxoacetamide], the “Activity (control) % EGFR (T790M) (h)” value in assay [2] (setting [6]) was 45%. In addition, the “Activity (control) % EGFR (h)” value in assay [4] (setting [6]) was 100%. In assay [3] (setting [6]), the “Activity (control) % EGFR (T790M, L858R) (h)” value stood at 9%. The “Activity (control) % EGFR (L858R) (h)” value in assay [5] (setting [6]) was determined as 84%. In assay [1] (setting [6]), the “Activity (control) % ALK (h)” value stood at 6%.
As for `C=C(CN1CCCCC1)C(=O)Nc1cc(Nc2ncc(Cl)c(Nc3ccccc3C(=O)C(=O)N(C)C)n2)ccc1N1CCOCC1` [Example 129, N-(5-(5-chloro-4-(2-(2-(dimethylamino)-2-oxoacetyl)phenylamino)pyrimidin-2-ylamino)-2-morpholinophenyl)-2-(piperidin-1-ylmethyl)acrylamide], in assay [2] (setting [6]), the “Activity (control) % EGFR (T790M) (h)” value was 24%. In assay [3] (setting [6]), the “Activity (control) % EGFR (T790M, L858R) (h)” value turned out to be 3%. Moreover, the “Activity (control) % EGFR (L858R) (h)” value in assay [5] (setting [6]) was 75%. The “Activity (control) % ALK (h)” value in assay [1] (setting [6]) is recorded as 8%.
In the case of `C=CC(=O)Nc1ccc(N2CCN(C)CC2)c(Nc2ncc(Cl)c(Nc3ccccc3C(=O)C(=O)N(C)C)n2)c1` [Example 135, N-(3-(5-chloro-4-(2-(2-(dimethylamino)-2-oxoacetyl)phenylamino)pyrimidin-2-ylamino)-4-(4-methylpiperazin-1-yl)phenyl)acrylamide], the “Activity (control) % EGFR (T790M) (h)” value in assay [2] (setting [6]) was 96%. In assay [3] (setting [6]), the “Activity (control) % EGFR (T790M, L858R) (h)” value is 95%. Moreover, the “Activity (control) % ALK (h)” value in assay [1] (setting [6]) is on record as 80%.
As for `C=CC(=O)Nc1cc(Nc2ncc(Cl)c(Nc3ccccc3C(=O)C(=O)NC)n2)ccc1OC` [Example 64, N-(5-(5-chloro-4-(2-(2-(methylamino)-2-oxoacetyl)phenylamino)pyrimidin-2-ylamino)-2-methoxyphenyl)acrylamide], the “Activity (control) % EGFR (T790M) (h)” value in assay [2] (setting [6]) was 79%. Moreover, in assay [3] (setting [6]), the “Activity (control) % EGFR (T790M, L858R) (h)” value is recorded as 39%. Moreover, the “Activity (control) % EGFR (L858R) (h)” value in assay [5] (setting [6]) was 100%. In addition, the “Activity (control) % ALK (h)” value in assay [1] (setting [6]) is listed as 47%.
In the case of `COc1cc(N2CCN(C(C)=O)CC2)ccc1Nc1ncc(Cl)c(Nc2ccccc2C(=O)C(=O)N(C)C)n1` [Example 53, 2-(2-(2-(4-(4-acetylpiperazin-1-yl)-2-methoxyphenylamino)-5-chloropyrimidin-4-ylamino)phenyl)-N,N-dimethyl-2-oxoacetamide], the “Activity (control) % EGFR (T790M) (h)” value in assay [2] (setting [6]) is on record as 21%. The “Activity (control) % EGFR (T790M, L858R) (h)” value in assay [3] (setting [6]) was 4%. In assay [5] (setting [6]), the “Activity (control) % EGFR (L858R) (h)” value is listed as 60%.
As to `C=CC(=O)Nc1ccc(OC)c(Nc2ncc(Cl)c(Nc3ccccc3C(=O)C(=O)N(CC)CC)n2)c1` [Example 131, N-(3-(5-chloro-4-(2-(2-(diethylamino)-2-oxoacetyl)phenylamino)pyrimidin-2-ylamino)-4-methoxyphenyl)acrylamide], the “Activity (control) % EGFR (T790M) (h)” value in assay [2] (setting [6]) amounted to 82%. The “Activity (control) % EGFR (T790M, L858R) (h)” value in assay [3] (setting [6]) is recorded as 27%. For the same compound, the “Activity (control) % ALK (h)” value in assay [1] (setting [6]) was 9%.
On to `CCC(=O)Nc1cc(Nc2ncc(Cl)c(Nc3ccccc3C(=O)C(=O)N(C)C)n2)ccc1OCCN(C)C` [Example 120, N-(5-(5-chloro-4-(2-(2-(dimethylamino)-2-oxoacetyl)phenylamino)pyrimidin-2-ylamino)-2-(2-(dimethylamino)ethoxy)phenyl)propionamide], for which, in assay [2] (setting [6]), the “Activity (control) % EGFR (T790M) (h)” value is recorded as 62%. Moreover, in assay [3] (setting [6]), the “Activity (control) % EGFR (T790M, L858R) (h)” value was 14%. The “Activity (control) % EGFR (L858R) (h)” value in assay [5] (setting [6]) stood at 76%. Besides, the “Activity (control) % ALK (h)” value in assay [1] (setting [6]) was 8%.
For `CN(C)C(=O)C(=O)c1ccccc1Nc1nc(Nc2ccc(F)c(NC(=O)CCN3CCOCC3)c2)ncc1Cl` [Example 123, N-(5-(5-chloro-4-(2-(2-(dimethylamino)-2-oxoacetyl)phenylamino)pyrimidin-2-ylamino)-2-fluorophenyl)-3-morpholinopropanamide], the “Activity (control) % EGFR (T790M) (h)” value in assay [2] (setting [6]) was 84%. For the same compound, the “Activity (control) % EGFR (T790M, L858R) (h)” value in assay [3] (setting [6]) stood at 31%. Besides, the “Activity (control) % EGFR (L858R) (h)” value in assay [5] (setting [6]) was 94%. Also, the “Activity (control) % ALK (h)” value in assay [1] (setting [6]) came to 17%.
For `C=CC(=O)Nc1cc(Nc2ncc(Cl)c(Nc3ccccc3C(=O)C(=O)N(C)C)n2)ccc1N1CCN(C)CC1` [Example 111, N-(5-(5-chloro-4-(2-(2-(dimethylamino)-2-oxoacetyl)phenylamino)pyrimidin-2-ylamino)-2-(4-methylpiperazin-1-yl)phenyl)acrylamide] the same measures were 59%, 11%, 76% and 8%.
For `COc1ccc(NC(=O)/C=C/CN2CCCCC2)cc1Nc1ncc(Cl)c(Nc2ccccc2C(=O)C(=O)N(C)C)n1` [Example 72, (E)-N-(3-(5-chloro-4-(2-(2-(dimethylamino)-2-oxoacetyl)phenylamino)pyrimidin-2-ylamino)-4-methoxyphenyl)-4-(piperidin-1-yl)but-2-enamide], in that order: 54%, 9%, 28% and 14%.
Take `CCN(CC)C(=O)C(=O)c1ccccc1Nc1nc(Nc2ccc(N3CCN(C)CC3)c(OC)c2)ncc1Cl` [Example 130, 2-(2-(5-chloro-2-(3-methoxy-4-(4-methylpiperazin-1-yl)phenylamino)pyrimidin-4-ylamino)phenyl)-N,N-diethyl-2-oxoacetamide]: in assay [2] (setting [6]), the “Activity (control) % EGFR (T790M) (h)” value turned out to be 84%. Also, in assay [3] (setting [6]), the “Activity (control) % EGFR (T790M, L858R) (h)” value is on record as 22%. The “Activity (control) % EGFR (L858R) (h)” value in assay [5] (setting [6]) worked out at 98%. Also, the “Activity (control) % ALK (h)” value in assay [1] (setting [6]) was 13%.
As for `C=CC(=O)Nc1cccc(Nc2nc(Nc3ccc(N4CCN(C(C)=O)CC4)cc3OC)ncc2C(F)(F)F)c1` [CO-1686, reference compound], the “Activity (control) % EGFR (T790M) (h)” value in assay [2] came to 21%. Also, the “Activity (control) % EGFR (h)” value in assay [4] turned out to be 92%. In addition, the “Activity (control) % EGFR (T790M, L858R) (h)” value in assay [3] came to 7%. In addition, in assay [5], the “Activity (control) % EGFR (L858R) (h)” value is reported as 97%.
As for `C=C(CN(C)CCN(C)C)C(=O)Nc1cccc(Nc2ncc(Cl)c(Nc3ccccc3C(=O)C(=O)N(C)C)n2)c1` [Example 125, N-(3-(5-chloro-4-(2-(2-(dimethylamino)-2-oxoacetyl)phenylamino)pyrimidin-2-ylamino)phenyl)-2-(((2-(dimethylamino)ethyl)(methyl)amino)methyl)acrylamide], the “Activity (control) % EGFR (T790M) (h)” value in assay [2] (setting [6]) is reported as 18%. Besides, the “Activity (control) % EGFR (T790M, L858R) (h)” value in assay [3] (setting [6]) is 2%. The “Activity (control) % EGFR (L858R) (h)” value in assay [5] (setting [6]) was 54%. Further, the “Activity (control) % ALK (h)” value in assay [1] (setting [6]) is reported as 20%.
Consider `COc1cc(Nc2ncc(Cl)c(Nc3ccccc3C(=O)C(=O)N(C)C)n2)ccc1N1CCOCC1` [Example 117, 2-(2-(5-chloro-2-(3-methoxy-4-morpholinophenylamino)pyrimidin-4-ylamino)phenyl)-N,N-dimethyl-2-oxoacetamide], for which, in assay [2] (setting [6]), the “Activity (control) % EGFR (T790M) (h)” value was 65%. Further, in assay [3] (setting [6]), the “Activity (control) % EGFR (T790M, L858R) (h)” value was found to be 14%. Moreover, the “Activity (control) % EGFR (L858R) (h)” value in assay [5] (setting [6]) came out at 88%. Also, in assay [1] (setting [6]), the “Activity (control) % ALK (h)” value was found to be 8%.
For `COc1ccc(NC(=O)/C=C/CN(C)C)cc1Nc1ncc(Cl)c(Nc2ccccc2C(=O)C(=O)N(C)C)n1` [Example 80, (E)-N-(3-(5-chloro-4-(2-(2-(dimethylamino)-2-oxoacetyl)phenylamino)pyrimidin-2-ylamino)-4-methoxyphenyl)-4-(dimethylamino)but-2-enamide] the same measures were 42%, 7%, 43% and 10%.
Regarding `COc1cc(Nc2ncc(Cl)c(Nc3ccccc3C(=O)C(=O)N(C)C)n2)ccc1N1CCN(C)CC1` [Example 61, 2-(2-(5-chloro-2-(3-methoxy-4-(4-methylpiperazin-1-yl)phenylamino)pyrimidin-4-ylamino)phenyl)-N,N-dimethyl-2-oxoacetamide], the “Activity (control) % EGFR (T790M) (h)” value in assay [2] is reported as 54%. Moreover, the “Activity (control) % EGFR (T790M, L858R) (h)” value in assay [3] amounted to 13%. Also, the “Activity (control) % EGFR (L858R) (h)” value in assay [5] turned out to be 70%. In addition, the “Activity (control) % ALK (h)” value in assay [1] is given as 5%.
As to `C=CC(=O)N1CCOc2ccc(Nc3ncc(Cl)c(Nc4ccccc4C(=O)C(=O)N(C)C)n3)cc21` [Example 87, 2-(2-(2-(4-acryloyl-3,4-dihydro-2H-benzo[b][1,4]oxazin-6-ylamino)-5-chloropyrimidin-4-ylamino)phenyl)-N,N-dimethyl-2-oxoacetamide], the “Activity (control) % ALK (h)” value in assay [1] worked out at 5%.
Consider `C=CC(=O)Nc1cccc(Nc2ncc(Cl)c(Nc3ccccc3C(=O)C(=O)N(C)C)n2)c1` [Example 40, N-(3-(5-chloro-4-(2-(2-(dimethylamino)-2-oxoacetyl)phenylamino)pyrimidin-2-ylamino)phenyl)acrylamide], for which the “Activity (control) % EGFR (T790M) (h)” value in assay [2] (setting [6]) is recorded as 79%. Further, the “Activity (control) % EGFR (T790M, L858R) (h)” value in assay [3] (setting [6]) was found to be 24%. Moreover, the “Activity (control) % ALK (h)” value in assay [1] (setting [6]) came out at 28%.

For the origin of these results see patent US9783524B2, “Protein tyrosine kinase modulators and methods of use” (BETTA PHARMACEUTICALS CO., LTD., priority 2013, dated 2017).
